In patent publication US20240390508A1, “HUMAN TRANSFERRIN RECEPTOR BINDING PEPTIDE-DRUG CONJUGATE” (priority 2021, published 2024):

Molecular target: transferrin receptor (hTfR) (Homo sapiens, UniProt P02786)
Assay: Intermolecular interaction evaluation test between transferrin receptor (hTfR) and peptide-nucleic acid conjugate using surface plasmon resonance (SPR)
Format: binding
Method: Intermolecular interaction evaluation test between transferrin receptor (hTfR) and peptide using surface plasmon resonance (SPR)
The various synthesized peptide-nucleic acid conjugates were tested for intermolecular interaction by surface plasmon resonance (SPR) of the peptide-nucleic acid conjugate with transferrin receptor (hTfR) using the method shown below. The specific test method is shown below.
NTA sensor chip (Global Life Science Technologies Japan Co., Ltd.) was inserted into Biacore T200 (Global Life Science Technologies Japan Co., Ltd.), prime operation was performed three times with running buffer: 10 mM HEPES pH 8.0 (Nacalai Tesque Co., Ltd.), 150 mM NaCl (Nacalai Tesque Co., Ltd.), 0.05% Tween 20 (Nacalai Tesque Co., Ltd.), 0.1% BSA (SIGMA-ALDRICH), and 1.0% DMSO (FUJIFILM Wako Pure Chemical Corporation), and equilibrated at a flow rate of 30 μL/min. 350 mM EDTA solution was reacted for 60 seconds at a flow rate of 10 μL/min, 0.5 mM NiCl2 solution (Kishida Chemical) was reacted for 60 seconds at a flow rate of 10 μL/min, and the NTA sensor chip was washed with 3 mM EDTA solution (Nacalai Tesque Co., Ltd.) for 60 seconds at a flow rate of 10 μL/min. After mixing 50 μL each of […] EDC solution (Global Life Science Technologies Japan Co., Ltd.) and […] NHS solution (Global Life Science Technologies Japan Co., Ltd.), the mixture was reacted for 420 seconds at a flow rate of 10 μL/min. 150 μL of a 0.5 μM hTfR solution was prepared by diluting with a running buffer and reacted for 300 seconds at a flow rate of 10 μL/min to immobilize hTfR on the NTA sensor chip. After immobilization, capping was performed by reacting with a 1.0 M ethanolamine aqueous solution (Global Life Science Technologies Japan Co., Ltd.) at a flow rate of 10 μL/min for 420 seconds. A peptide-nucleic acid conjugate solution adjusted to 10 mM in DMSO solution was diluted with running buffer to a final concentration of 10 μM peptide-nucleic acid conjugate solution, and 100 nM, 50 nM, 25 nM, 10 nM, 5 nM peptide-nucleic acid conjugate solutions were prepared. Using the aforementioned samples, the kinetics of the peptide against hTfR was obtained by SPR measurement.
The kinetics evaluation model was Single Cycle Kinetics, and curve fitting was performed using Biacore T200 Evaluation Software Version 3.0 (Global Life Science Technologies Japan Co., Ltd.). The obtained sensorgram was subjected to curve fitting using the least squares method, and the binding of the peptide-nucleic acid conjugate to hTfR was evaluated by determining the KD value.

transferrin receptor (hTfR), sequence (P02786 whole entry): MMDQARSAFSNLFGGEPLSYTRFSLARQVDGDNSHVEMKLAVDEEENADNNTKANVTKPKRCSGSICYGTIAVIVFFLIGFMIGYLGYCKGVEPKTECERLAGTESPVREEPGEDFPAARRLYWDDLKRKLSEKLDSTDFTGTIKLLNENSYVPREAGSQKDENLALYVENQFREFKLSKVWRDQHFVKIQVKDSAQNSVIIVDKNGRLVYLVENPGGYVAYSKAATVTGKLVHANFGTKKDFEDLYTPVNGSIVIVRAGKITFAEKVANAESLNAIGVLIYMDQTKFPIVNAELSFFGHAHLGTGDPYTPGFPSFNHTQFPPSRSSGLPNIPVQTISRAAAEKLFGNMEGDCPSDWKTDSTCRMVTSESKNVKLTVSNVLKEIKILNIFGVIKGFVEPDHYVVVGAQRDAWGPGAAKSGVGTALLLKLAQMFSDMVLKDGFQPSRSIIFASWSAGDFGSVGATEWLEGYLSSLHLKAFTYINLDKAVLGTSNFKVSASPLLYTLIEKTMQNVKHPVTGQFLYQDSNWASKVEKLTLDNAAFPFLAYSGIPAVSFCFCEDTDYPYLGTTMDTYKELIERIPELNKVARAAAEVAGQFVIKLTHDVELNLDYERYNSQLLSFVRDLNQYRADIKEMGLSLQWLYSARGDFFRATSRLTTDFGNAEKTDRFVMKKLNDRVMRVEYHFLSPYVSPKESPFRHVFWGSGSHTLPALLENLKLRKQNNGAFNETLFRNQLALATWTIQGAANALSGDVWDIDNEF

Row | Compound | Kd [nM]
1 | CC[C@H](C)[C@@H]1NC(=O)[C@H](Cc2ccc(O)cc2)NC(=O)[C@H](Cc2ccc(O)cc2)NC(=O)[C@H](CC(N)=O)NC(=O)[C@H](Cc2c[nH]c3ccccc23)NC(=O)[C@H](C(C)C)NC(=O)[C@H](Cc2ccccc2)N(C)C(=O)[C@H](C(C)C)NC(=O)[C@H](C)NC(=O)CSC[C@@H](C(=O)NCC(=O)N[C@@H](CCCCn2cc(CCC(=O)NCCOCCOCC(=O)N[C@@H](CCCCN)C(=O)N[C@@H](CCCCN)C(=O)N[C@@H](CCCCN)C(=O)NCC(=O)N3C[C@@H](COP(=O)(N(C)C)N4C[C@@H](COP(=O)(N(C)C)N5C[C@@H](COP(=O)(N(C)C)N6C[C@@H](COP(=O)(N(C)C)N7C[C@@H](COP(=O)(N(C)C)N8C[C@@H](COP(=O)(N(C)C)N9C[C@@H](COP(=O)(N(C)C)N%10C[C@@H](COP(=O)(N(C)C)N%11C[C@@H](COP(=O)(N(C)C)N%12C[C@@H](COP(=O)(N(C)C)N%13C[C@@H](COP(=O)(N(C)C)N%14C[C@@H](COP(=O)(N(C)C)N%15C[C@@H](COP(=O)(N(C)C)N%16C[C@@H](COP(=O)(N(C)C)N%17C[C@@H](COP(=O)(N(C)C)N%18C[C@@H](COP(=O)(N(C)C)N%19C[C@@H](COP(=O)(N(C)C)N%20C[C@@H](COP(=O)(N(C)C)N%21C[C@@H](COP(=O)(N(C)C)N%22C[C@@H](COP(=O)(N(C)C)N%23C[C@@H](COP(=O)(N(C)C)N%24C[C@@H](COP(=O)(N(C)C)N%25C[C@@H](COP(=O)(N(C)C)N%26C[C@@H](COP(=O)(N(C)C)N%27C[C@@H](COP(=O)(N(C)C)N(C)CC(N)=O)O[C@@H](n%28cnc%29c(=O)[nH]c(N)nc%29%28)C%27)O[C@@H](n%27cnc%28c(=O)[nH]c(N)nc%28%27)C%26)O[C@@H](n%26ccc(N)nc%26=O)C%25)O[C@@H](n%25ccc(N)nc%25=O)C%24)O[C@@H](n%24cnc%25c(N)ncnc%25%24)C%23)O[C@@H](n%23cnc%24c(N)ncnc%24%23)C%22)O[C@@H](n%22cnc%23c(N)ncnc%23%22)C%21)O[C@@H](n%21ccc(N)nc%21=O)C%20)O[C@@H](n%20ccc(N)nc%20=O)C%19)O[C@@H](n%19cc(C)c(=O)[nH]c%19=O)C%18)O[C@@H](n%18ccc(N)nc%18=O)C%17)O[C@@H](n%17cnc%18c(=O)[nH]c(N)nc%18%17)C%16)O[C@@H](n%16cnc%17c(=O)[nH]c(N)nc%17%16)C%15)O[C@@H](n%15ccc(N)nc%15=O)C%14)O[C@@H](n%14cc(C)c(=O)[nH]c%14=O)C%13)O[C@@H](n%13cc(C)c(=O)[nH]c%13=O)C%12)O[C@@H](n%12cnc%13c(N)ncnc%13%12)C%11)O[C@@H](n%11ccc(N)nc%11=O)C%10)O[C@@H](n%10ccc(N)nc%10=O)C9)O[C@@H](n9cc(C)c(=O)[nH]c9=O)C8)O[C@@H](n8cnc9c(=O)[nH]c(N)nc98)C7)O[C@@H](n7cnc8c(N)ncnc87)C6)O[C@@H](n6cnc7c(N)ncnc76)C5)O[C@@H](n5cnc6c(N)ncnc65)C4)O[C@@H](n4cc(C)c(=O)[nH]c4=O)C3)nn2)C(N)=O)NC(=O)[C@H](Cc2ccc(O)cc2)N(C)C(=O)[C@H](Cc2ccc(O)cc2)NC(=O)[C@H](CCCNC(=N)N)NC(=O)[C@H](CCCNC(=N)N)NC(=O)[C@H]([C@@H](C)CC)NC1=O (some centres unmarked) [Example 61] | < 100
2 | CC[C@H](C)[C@@H]1NC(=O)[C@H](Cc2ccc(O)cc2)NC(=O)[C@H](Cc2ccc(O)cc2)NC(=O)[C@H](CC(N)=O)NC(=O)[C@H](Cc2c[nH]c3ccccc23)NC(=O)[C@H](C(C)C)NC(=O)[C@H](Cc2ccccc2)N(C)C(=O)[C@H](C(C)C)NC(=O)[C@H](C)NC(=O)CSC[C@@H](C(=O)NCC(=O)N[C@@H](CCCCn2nnc3c2CCC2C(CC3)C2COC(=O)NCCOCCOCC(=O)N[C@@H](CCCNC(=N)N)C(=O)N[C@@H](CCCNC(=N)N)C(=O)N[C@@H](CCCNC(=N)N)C(=O)NCCC(=O)N2C[C@@H](COP(=O)(N(C)C)N3C[C@@H](COP(=O)(N(C)C)N4C[C@@H](COP(=O)(N(C)C)N5C[C@@H](COP(=O)(N(C)C)N6C[C@@H](COP(=O)(N(C)C)N7C[C@@H](COP(=O)(N(C)C)N8C[C@@H](COP(=O)(N(C)C)N9C[C@@H](COP(=O)(N(C)C)N%10C[C@@H](COP(=O)(N(C)C)N%11C[C@@H](COP(=O)(N(C)C)N%12C[C@@H](COP(=O)(N(C)C)N%13C[C@@H](COP(=O)(N(C)C)N%14C[C@@H](COP(=O)(N(C)C)N%15C[C@@H](COP(=O)(N(C)C)N%16C[C@@H](COP(=O)(N(C)C)N%17C[C@@H](COP(=O)(N(C)C)N%18C[C@@H](COP(=O)(N(C)C)N%19C[C@@H](COP(=O)(N(C)C)N%20C[C@@H](COP(=O)(N(C)C)N%21C[C@@H](COP(=O)(N(C)C)N%22C[C@@H](COP(=O)(N(C)C)N%23C[C@@H](COP(=O)(N(C)C)N%24C[C@@H](COP(=O)(N(C)C)N%25C[C@@H](COP(=O)(N(C)C)N%26C[C@@H](COP(=O)(N(C)C)N(C)CC(N)=O)O[C@@H](n%27cnc%28c(=O)[nH]c(N)nc%28%27)C%26)O[C@@H](n%26cc(C)c(=O)[nH]c%26=O)C%25)O[C@@H](n%25cc(C)c(=O)[nH]c%25=O)C%24)O[C@@H](n%24cnc%25c(=O)[nH]c(N)nc%25%24)C%23)O[C@@H](n%23ccc(N)nc%23=O)C%22)O[C@@H](n%22ccc(N)nc%22=O)C%21)O[C@@H](n%21cc(C)c(=O)[nH]c%21=O)C%20)O[C@@H](n%20ccc(N)nc%20=O)C%19)O[C@@H](n%19ccc(N)nc%19=O)C%18)O[C@@H](n%18cnc%19c(=O)[nH]c(N)nc%19%18)C%17)O[C@@H](n%17cnc%18c(=O)[nH]c(N)nc%18%17)C%16)O[C@@H](n%16cc(C)c(=O)[nH]c%16=O)C%15)O[C@@H](n%15cc(C)c(=O)[nH]c%15=O)C%14)O[C@@H](n%14ccc(N)nc%14=O)C%13)O[C@@H](n%13cc(C)c(=O)[nH]c%13=O)C%12)O[C@@H](n%12cnc%13c(=O)[nH]c(N)nc%13%12)C%11)O[C@@H](n%11cnc%12c(N)ncnc%12%11)C%10)O[C@@H](n%10cnc%11c(N)ncnc%11%10)C9)O[C@@H](n9cnc%10c(=O)[nH]c(N)nc%109)C8)O[C@@H](n8cnc9c(=O)[nH]c(N)nc98)C7)O[C@@H](n7cc(C)c(=O)[nH]c7=O)C6)O[C@@H](n6cnc7c(=O)[nH]c(N)nc76)C5)O[C@@H](n5cc(C)c(=O)[nH]c5=O)C4)O[C@@H](n4cc(C)c(=O)[nH]c4=O)C3)O[C@@H](n3ccc(N)nc3=O)C2)C(N)=O)NC(=O)[C@H](Cc2ccc(O)cc2)N(C)C(=O)[C@H](Cc2ccc(O)cc2)NC(=O)[C@H](CCCNC(=N)N)NC(=O)[C@H](CCCNC(=N)N)NC(=O)[C@H]([C@@H](C)CC)NC1=O (some centres unmarked) [Example 57] | < 100
